Earlier results as cited in US20060287529A1, “Solid phase synthesis of antitumoral compounds” (priority 2003, published 2006).

Key:
fertilised sea urchin = fertilised sea urchin assay; background statement
A549 cell line = A549 cell line in culture; background statement
P388 cell line = P388 cell line in culture; background statement
lung cancer cell lines = details: acting as a Type IV microtubule poison; background statement

Row | Molecule | inhibition of cell division (fertilised sea urchin) | cytotoxicity (A549 cell line) | cytotoxicity (P388 cell line) | activity in lung cancer cell lines (lung cancer cell lines)
1 | COc1cc(-c2c3n(c4c(=O)oc5cc(O)c(OC)cc5c24)CCc2c-3cc(OC)c(OC)c2OC)ccc1O [lamellarin C] | inhibition of cell division | – | – | –
2 | COc1ccc(-c2c3n(c4c(=O)oc5cc(O)c(OC)cc5c24)CCc2cc(O)c(OC)cc2-3)cc1O [lamellarin L, 8,9-dihydro-3,11-dihydroxy-2,12-dimethoxy-14-(3′-hydroxy-4′-methoxy-phenyl)-6H-[1]benzopyrano[4′,3′:4,5]pyrrolo[2,1-α]isoquinolin-6-one] | – | comparable cytoxicity | comparable cytoxicity | –
3 | COc1ccc(-c2c3c4cc(OC)c(O)cc4oc(=O)c3n3ccc4cc(O)c(OC)cc4c23)cc1O [lamellarin N, 3,10-dihydroxy-2,12-dimethoxy-14-(3′-hydroxy-4′-methoxy-phenyl)-6H-[1]benzopyrano[4′,3′:4,5]pyrrolo[2,1-α]isoquinolin-6-one] | – | – | – | exhibit activity
4 | lamellarin D | inhibition of cell division | – | – | –
5 | lamellarin I | – | comparable cytoxicity | comparable cytoxicity | –
6 | lamellarin K | – | comparable cytoxicity | comparable cytoxicity | –
